Among the test systems are A498 renal; OVCAR-3 ovarian; NCI/ADR-RES ovarian; UO-31 renal; ACHN renal; TK-10 renal; SNB-75 CNS; SK-MEL-2 melanoma; UACC-257 melanoma; HOP-92 NSCLC.
Holding throughout (experiment): DTP human tumour cell line panel, 48 h

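These data come from cells grown in 96-well plates and exposed to compound for 48 hours at five concentrations. At the GI50, growth is halved. Definition used: TGI = concentration required for complete inhibition of growth.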

Broadly, the GI50 is the concentration at which growth is held to half of that of the control. The term TGI denotes the concentration giving total growth inhibition.

As for `C=C(C)[C@@H]1CC[C@]2(C(N)=O)CC[C@]3(C)[C@H](CC[C@@H]4[C@@]5(C)CC[C@H](O)C(C)(C)[C@@H]5CC[C@]43C)[C@@H]12`, the GI50 in the assay with A498 renal is 12.2 µM; in the assay on OVCAR-3 ovarian it was 2.07 µM; in the assay with NCI/ADR-RES ovarian, 3.17 µM; with UO-31 renal, 1.72 µM; in the assay with ACHN renal it was 2.44 µM; with TK-10 renal, 2.79 µM. Moreover, the GI50 is 2.74 µM with SNB-75 CNS, 7.63 µM in the assay on SK-MEL-2 melanoma, 13.2 µM with UACC-257 melanoma and 2.69 µM in the assay on HOP-92 NSCLC. Further, the TGI with A498 renal turned out to be 76.5 µM; in the assay on OVCAR-3 ovarian, 4.18 µM; in the assay on NCI/ADR-RES ovarian, 12.5 µM; in the assay with UO-31 renal, 3.34 µM; with ACHN renal, 6.82 µM; in the assay on TK-10 renal it was 7.59 µM. The TGI in the assay with SNB-75 CNS was 12.1 µM; with SK-MEL-2 melanoma, 36.8 µM; in the assay on UACC-257 melanoma, more than 100 µM; in the assay with HOP-92 NSCLC, 8.86 µM.
In the case of `CNC(=O)c1c(NC(=O)c2ccc(C(F)(F)F)cc2)sc2c1CCC(=O)C2`, the GI50 in the assay on A498 renal was 2.33 µM; in the assay on OVCAR-3 ovarian, 0.812 µM; in the assay on NCI/ADR-RES ovarian, 0.662 µM; in the assay with UO-31 renal it was 0.302 µM; in the assay with ACHN renal, 0.322 µM; in the assay with TK-10 renal, 0.815 µM. Besides, the GI50 in the assay with SNB-75 CNS was 0.714 µM; in the assay with SK-MEL-2 melanoma, 1.36 µM; in the assay with UACC-257 melanoma, 1.73 µM; in the assay with HOP-92 NSCLC, 0.256 µM. Moreover, the TGI in the assay with A498 renal is 7.07 µM; in the assay on OVCAR-3 ovarian it was 3.29 µM; with NCI/ADR-RES ovarian, 3.74 µM; in the assay with UO-31 renal, 1.4 µM; with ACHN renal, 1.9 µM; in the assay with TK-10 renal, 21.2 µM. Further, the TGI is 3.95 µM in the assay on SNB-75 CNS, 5.46 µM in the assay on SK-MEL-2 melanoma, 6.22 µM in the assay with UACC-257 melanoma and 2.15 µM in the assay on HOP-92 NSCLC.
For the molecule `COc1cccc(Cn2c(-c3nonc3N)nc3ccccc32)c1`, the GI50 in the assay with A498 renal is 0.0532 µM; in the assay with OVCAR-3 ovarian, 0.354 µM; in the assay with NCI/ADR-RES ovarian, 0.396 µM; in the assay with UO-31 renal, 0.632 µM; with ACHN renal, 0.612 µM; in the assay with TK-10 renal, 0.728 µM. Moreover, the GI50 with SNB-75 CNS is 0.225 µM; with SK-MEL-2 melanoma, 0.353 µM; with UACC-257 melanoma, 0.314 µM; in the assay on HOP-92 NSCLC it was 0.344 µM. Also, the TGI in the assay on A498 renal is 0.696 µM; with OVCAR-3 ovarian it was 3.62 µM; in the assay with UO-31 renal it was more than 100 µM; in the assay with ACHN renal it was more than 100 µM; in the assay on TK-10 renal, 52.4 µM; in the assay with SNB-75 CNS, 2.02 µM. The TGI in the assay on SK-MEL-2 melanoma is 15.4 µM; in the assay with UACC-257 melanoma, more than 100 µM; in the assay on HOP-92 NSCLC, 16.4 µM.
Consider `COc1ccccc1/C=C/C(=O)c1c(O)cc2occc2c1OC`, for which the GI50 with A498 renal was 46 µM; in the assay with OVCAR-3 ovarian it was 47.4 µM; in the assay on NCI/ADR-RES ovarian it was 29.6 µM; in the assay with UO-31 renal it was more than 100 µM; in the assay with ACHN renal, 30 µM; with TK-10 renal, 21.9 µM. The GI50 in the assay on SNB-75 CNS was 7.49 µM; in the assay with SK-MEL-2 melanoma it was more than 100 µM; in the assay with UACC-257 melanoma it was more than 100 µM; in the assay on HOP-92 NSCLC, 2.98 µM. Further, the TGI in the assay on A498 renal was more than 100 µM; in the assay on OVCAR-3 ovarian it was more than 100 µM; in the assay with NCI/ADR-RES ovarian, more than 100 µM; in the assay with UO-31 renal, more than 100 µM; with ACHN renal, more than 100 µM; in the assay on TK-10 renal it was 62.7 µM. The concentration for total growth inhibition (TGI) in the assay with SNB-75 CNS is 26.3 µM; in the assay with SK-MEL-2 melanoma, more than 100 µM; in the assay on UACC-257 melanoma, more than 100 µM; with HOP-92 NSCLC, 26.6 µM.
For `COc1cc2c(F)nccc2cc1C(=O)N[C@@H](c1ccc(F)c(Cl)c1)[C@@H]1C[C@@H](O)CN1`, the GI50 in the assay on A498 renal is 0.0301 µM; in the assay with OVCAR-3 ovarian, 8.43 µM; with NCI/ADR-RES ovarian, 14 µM; in the assay on UO-31 renal, 0.491 µM; with ACHN renal, 9.59 µM; in the assay on TK-10 renal it was 0.279 µM. The GI50 with SNB-75 CNS is 0.074 µM; in the assay on SK-MEL-2 melanoma it was 11.4 µM; in the assay on UACC-257 melanoma, 1.33 µM; in the assay on HOP-92 NSCLC, 0.291 µM. Further, the TGI with A498 renal came out at 1.89 µM; in the assay with OVCAR-3 ovarian, 24.7 µM; with NCI/ADR-RES ovarian, 47 µM; with UO-31 renal, 15.4 µM; in the assay with ACHN renal, 22.3 µM; with TK-10 renal it was 14.1 µM. Also, the TGI was 1.51 µM in the assay with SNB-75 CNS, 25.2 µM in the assay on SK-MEL-2 melanoma, 19.6 µM with UACC-257 melanoma and 7.83 µM in the assay with HOP-92 NSCLC.
Regarding `CCN1C(=O)N(CC)C2C1NN=c1s/c(=C\c3ccccc3F)c(=O)n12` (centres undefined), the GI50 was 0.0154 µM with A498 renal; 0.0282 µM in the assay with OVCAR-3 ovarian; 0.0296 µM with NCI/ADR-RES ovarian; 0.17 µM in the assay with UO-31 renal; 0.0522 µM in the assay with ACHN renal; 1.68 µM in the assay on TK-10 renal. In addition, the GI50 in the assay with SNB-75 CNS is 0.0133 µM; with SK-MEL-2 melanoma it was 0.0489 µM; with UACC-257 melanoma it was 2.11 µM; in the assay on HOP-92 NSCLC, 1.11 µM. The TGI in the assay with A498 renal is 0.064 µM; with OVCAR-3 ovarian, 0.0789 µM; in the assay on NCI/ADR-RES ovarian, more than 63.6 µM; in the assay with UO-31 renal it was more than 69.4 µM; with ACHN renal, more than 100 µM; in the assay on TK-10 renal it was more than 63.6 µM. Further, the TGI with SNB-75 CNS was 0.0711 µM; with SK-MEL-2 melanoma, more than 38.9 µM; with UACC-257 melanoma, more than 100 µM; in the assay on HOP-92 NSCLC, 69 µM.
For the molecule `COc1cc2c3c(c4ccc(OC)c(OC)c4c2cc1OC)CN1CCC[C@@H]1C3`, the TGI is 0.0681 µM in the assay with A498 renal; 16.6 µM with OVCAR-3 ovarian; 0.4 µM in the assay with NCI/ADR-RES ovarian; 0.291 µM in the assay with UO-31 renal; 3.55 µM in the assay on ACHN renal; 3.88 µM with TK-10 renal. Besides, the TGI with SNB-75 CNS was 0.0947 µM; in the assay on SK-MEL-2 melanoma, 0.237 µM; with UACC-257 melanoma, 17.7 µM; in the assay on HOP-92 NSCLC it was 0.616 µM.

Values taken from PubChem BioAssay (NCI).
